Laboratory results: ChEMBL document CHEMBL1201862, “PubChem BioAssay data set” (2004)
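Interpolation was linear, between the two tested concentrations surrounding the appropriate level; five concentrations were tested over 48 hours in 96-well plates. GI50: concentration for 50% inhibition of growth.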 The source made the active and inactive calls. Cut-off read from the data, not from the text of the source: active = GI50 up to about 1.1 µM and inactive = higher.

How the values were obtained:
Test in all cases: NCI anticancer screen, dose series, 48 h
786-0 = tested on: 786-0
A498 = tested on: A498
A549 = tested on: A549
ACHN = tested on: ACHN
CAKI-1 = tested on: CAKI-1
CCRF-CEM = tested on: CCRF-CEM
COLO 205 = tested on: COLO 205
DU-145 = tested on: DU-145
EKVX = tested on: EKVX
HCT-116 = tested on: HCT-116
HCT-15 = tested on: HCT-15
HOP-62 = tested on: HOP-62
HOP-92 = tested on: HOP-92
HT-29 = tested on: HT-29
Hs-578T = tested on: Hs-578T
IGROV-1 = tested on: IGROV-1
KM12 = tested on: KM12
LOX IMVI = tested on: LOX IMVI
M14 = tested on: M14
MCF7 = tested on: MCF7
MDA-MB-231 = tested on: MDA-MB-231
MDA-MB-435 = tested on: MDA-MB-435
MDA-N = tested on: MDA-N
MOLT-4 = tested on: MOLT-4
Malme-3M = tested on: Malme-3M
NCI-H226 = tested on: NCI-H226
NCI-H23 = tested on: NCI-H23
NCI-H460 = tested on: NCI-H460
NCI-H522 = tested on: NCI-H522
NCI/ADR-RES = tested on: NCI/ADR-RES
OVCAR-4 = tested on: OVCAR-4
OVCAR-5 = tested on: OVCAR-5
OVCAR-8 = tested on: OVCAR-8
PC-3 = tested on: PC-3
RXF 393 = tested on: RXF 393
SF-268 = tested on: SF-268
SF-295 = tested on: SF-295
SF-539 = tested on: SF-539
SK-MEL-28 = tested on: SK-MEL-28
SK-MEL-2 = tested on: SK-MEL-2
SK-MEL-5 = tested on: SK-MEL-5
SK-OV-3 = tested on: SK-OV-3
SN12C = tested on: SN12C
SNB-19 = tested on: SNB-19
SNB-75 = tested on: SNB-75
SW-620 = tested on: SW-620
T47D = tested on: T47D
TK-10 = tested on: TK-10
U-251 = tested on: U-251
UACC-257 = tested on: UACC-257
UACC-62 = tested on: UACC-62
UO-31 = tested on: UO-31
HL-60 = tested on: HL-60
K562 = tested on: K562
OVCAR-3 = tested on: OVCAR-3
RPMI-8226 = tested on: RPMI-8226
SR = tested on: SR

C=C(CC(=O)Nc1ccc(C(=O)OC)o1)C(=O)OC
GI50 (786-0): 19.7 µM (inactive) | GI50 (A498): 42.8 µM (inactive) | GI50 (A549): 18.2 µM (inactive) | GI50 (ACHN): 18.7 µM (inactive) | GI50 (CAKI-1): 24.5 µM (inactive) | GI50 (CCRF-CEM): > 10 µM (inactive) | GI50 (COLO 205): 19.6 µM (inactive) | GI50 (DU-145): 31.9 µM (inactive) | GI50 (EKVX): 21.8 µM (inactive) | GI50 (HCT-116): 29.4 µM (inactive) | GI50 (HCT-15): 24.7 µM | GI50 (HOP-62): 73.3 µM (inactive) | GI50 (HOP-92): 29.4 µM (inactive) | GI50 (HT-29): 26.5 µM (inactive) | GI50 (Hs-578T): 53.1 µM (inactive) | GI50 (IGROV-1): 23 µM (inactive) | GI50 (KM12): 19.9 µM (inactive) | GI50 (LOX IMVI): 30.8 µM (inactive) | GI50 (M14): 19.1 µM (inactive) | GI50 (MCF7): 17.9 µM (inactive) | GI50 (MDA-MB-231): 27.7 µM (inactive) | GI50 (MDA-MB-435): 17.8 µM (inactive) | GI50 (MDA-N): > 10 µM (inactive) | GI50 (MOLT-4): 18.8 µM (inactive) | GI50 (Malme-3M): 19.7 µM (inactive) | GI50 (NCI-H226): 26.5 µM (inactive) | GI50 (NCI-H23): 28 µM (inactive) | GI50 (NCI-H460): 29.9 µM (inactive) | GI50 (NCI-H522): 19.9 µM (inactive) | GI50 (NCI/ADR-RES): 41.3 µM (inactive) | GI50 (OVCAR-4): 30.7 µM (inactive) | GI50 (OVCAR-5): 17.1 µM (inactive) | GI50 (OVCAR-8): 36.9 µM (inactive) | GI50 (PC-3): 23.6 µM (inactive) | GI50 (RXF 393): 18.5 µM (inactive) | GI50 (SF-268): 36.6 µM (inactive) | GI50 (SF-295): 34.5 µM (inactive) | GI50 (SF-539): 17.3 µM (inactive) | GI50 (SK-MEL-28): 23 µM (inactive) | GI50 (SK-MEL-2): 20.7 µM (inactive) | GI50 (SK-MEL-5): 18.5 µM (inactive) | GI50 (SK-OV-3): 28.7 µM (inactive) | GI50 (SN12C): 24.9 µM (inactive) | GI50 (SNB-19): 25.3 µM (inactive) | GI50 (SNB-75): 32.4 µM (inactive) | GI50 (SW-620): 22 µM (inactive) | GI50 (T47D): 23.2 µM (inactive) | GI50 (TK-10): 20.8 µM (inactive) | GI50 (U-251): 35 µM (inactive) | GI50 (UACC-257): 21.3 µM (inactive) | GI50 (UACC-62): 25.4 µM (inactive) | GI50 (UO-31): 20.6 µM (inactive)

CC(O)C(CO)NC(=O)C1CSSCC(NC(=O)C(N)Cc2ccccc2)C(=O)NC(Cc2ccccc2)C(=O)NC(Cc2c[nH]c3ccccc23)C(=O)NC(CCCCN)C(=O)NC(C(C)O)C(=O)N1 (stereo unspecified)
GI50 (786-0): > 100 µM (inactive) | GI50 (A498): > 100 µM (inactive) | GI50 (A549): > 100 µM (inactive) | GI50 (ACHN): > 100 µM (inactive) | GI50 (CAKI-1): > 100 µM (inactive) | GI50 (CCRF-CEM): > 100 µM (inactive) | GI50 (COLO 205): > 100 µM (inactive) | GI50 (DU-145): > 100 µM (inactive) | GI50 (EKVX): > 100 µM (inactive) | GI50 (HCT-116): > 100 µM (inactive) | GI50 (HCT-15): > 100 µM | GI50 (HL-60): > 100 µM (inactive) | GI50 (HOP-62): > 100 µM (inactive) | GI50 (HOP-92): > 100 µM (inactive) | GI50 (HT-29): > 100 µM (inactive) | GI50 (IGROV-1): > 100 µM (inactive) | GI50 (K562): > 100 µM (inactive) | GI50 (KM12): > 100 µM (inactive) | GI50 (LOX IMVI): > 100 µM (inactive) | GI50 (M14): > 100 µM (inactive) | GI50 (MCF7): > 100 µM (inactive) | GI50 (MDA-MB-231): > 100 µM (inactive) | GI50 (MDA-MB-435): > 100 µM (inactive) | GI50 (MDA-N): > 100 µM (inactive) | GI50 (MOLT-4): > 100 µM (inactive) | GI50 (Malme-3M): > 100 µM (inactive) | GI50 (NCI-H226): > 100 µM (inactive) | GI50 (NCI-H23): > 100 µM (inactive) | GI50 (NCI-H460): > 100 µM (inactive) | GI50 (NCI-H522): > 100 µM (inactive) | GI50 (NCI/ADR-RES): > 100 µM (inactive) | GI50 (OVCAR-3): > 100 µM (inactive) | GI50 (OVCAR-4): > 100 µM (inactive) | GI50 (OVCAR-5): > 100 µM (inactive) | GI50 (OVCAR-8): > 100 µM (inactive) | GI50 (PC-3): > 100 µM (inactive) | GI50 (RPMI-8226): > 100 µM (inactive) | GI50 (RXF 393): > 100 µM (inactive) | GI50 (SF-268): > 100 µM (inactive) | GI50 (SF-295): > 100 µM (inactive) | GI50 (SF-539): > 100 µM (inactive) | GI50 (SK-MEL-28): > 100 µM (inactive) | GI50 (SK-MEL-5): > 100 µM (inactive) | GI50 (SN12C): > 100 µM (inactive) | GI50 (SNB-19): > 100 µM (inactive) | GI50 (SNB-75): > 100 µM (inactive) | GI50 (SR): > 100 µM (inactive) | GI50 (SW-620): > 100 µM (inactive) | GI50 (T47D): > 100 µM (inactive) | GI50 (TK-10): > 100 µM (inactive) | GI50 (U-251): > 100 µM (inactive) | GI50 (UACC-257): > 100 µM (inactive) | GI50 (UACC-62): > 100 µM (inactive) | GI50 (UO-31): > 100 µM (inactive)
